Experimental data reported in patent US11572369B2, “Bicyclic pyridine compositions and methods of using the same for cancer therapy” (UNIVERSITY OF SOUTH CAROLINA, priority 2019, dated 2023).

Assays:
Test in all cases: KINOMEscan
Assay type in all cases: binding
Conditions in all cases: 2000 nM
[1] = molecular target: ABL1(H396P)-nonphosphorylated (Homo sapiens, UniProt P00519, H396P)
[2] = molecular target: ABL1(M351T)-phosphorylated (Homo sapiens, UniProt P00519, M351T)
[3] = molecular target: ABL1-phosphorylated (Homo sapiens, UniProt P00519)
[4] = molecular target: T1, ACVRL1 (Homo sapiens, UniProt P37023)
T1 construct: purchased DiscoveRx (KINOMEscan scanMAX panel, service)

[5] = molecular target: T2, AURKC (Homo sapiens, UniProt Q9UQB9)
T2 construct: DNA label (qPCR read-out); purchased KINOMEscan scanMAX panel (DiscoveRx)

[6] = molecular target: T3, CAMK1B (Homo sapiens, UniProt Q6P2M8)
T3 construct: DNA label (qPCR read-out); purchased KINOMEscan (ScanMAX panel service)

[7] = molecular target: T4, CAMK2B (Homo sapiens, UniProt Q13554)
T4 construct: DNA label (qPCR read-out); purchased KINOMEscan (ScanMAX panel service)

[8] = molecular target: T5, CAMK4 (Homo sapiens, UniProt Q16566)
T5 construct: DNA label (qPCR read-out); purchased KINOMEscan (ScanMAX panel service)

[9] = molecular target: T6, CIT (Homo sapiens, UniProt O14578)
T6 construct: DNA label (for qPCR read-out); purchased DiscoveRx (KINOMEscan scanMAX service)

[10] = molecular target: T7, DCAMKL2 (Homo sapiens, UniProt Q8N568)
T7 construct: DNA label (qPCR read-out); purchased KINOMEscan (DiscoveRx) panel

[11] = molecular target: T8, DMPK2 (Homo sapiens, UniProt Q6DT37)
T8 construct: DNA label (qPCR read-out); purchased KINOMEscan (DiscoveRx) panel

[12] = molecular target: T9, EGFR(L747-E749del, A750P) (Homo sapiens, UniProt P00533, A750P/DEL747-749)
T9 construct: purchased DiscoveRx (KINOMEscan scanMAX panel)

[13] = molecular target: T10, FRK (Homo sapiens, UniProt P42685)
T10 construct: purchased KINOMEscan (DiscoveRx)

[14] = molecular target: T11, GRK7 (Homo sapiens, UniProt Q8WTQ7)
T11 construct: DNA label (for qPCR read-out); purchased DiscoveRx (KINOMEscan scanMAX panel, contract assay)

[15] = molecular target: T12, IKK-alpha (Homo sapiens, UniProt O15111)
T12 construct: DNA label (qPCR read-out); purchased KINOMEscan (DiscoveRx) ScanMAX panel

[16] = molecular target: T13, LOK (Homo sapiens, UniProt O94804)
T13 construct: purchased KINOMEscan (DiscoveRx) panel service

[17] = molecular target: T14, LRRK2 (Homo sapiens, UniProt Q5S007)
T14 construct: purchased KINOMEscan (DiscoveRx) panel service

[18] = molecular target: T15, MINK (Homo sapiens, UniProt Q8N4C8)
T15 construct: DNA label (qPCR read-out); purchased KINOMEscan scanMAX panel (DiscoveRx)

[19] = molecular target: T16, MST3 (Homo sapiens, UniProt Q9Y6E0)
T16 construct: DNA label (for qPCR read-out); purchased KINOMEscan scanMAX panel (DiscoveRx)

[20] = molecular target: T17, PIK3CA (Homo sapiens, UniProt P42336)
T17 construct: DNA label (for qPCR read-out); purchased DiscoveRx (KINOMEscan scanMAX service)

[21] = molecular target: T18, PLK4 (Homo sapiens, UniProt O00444)
T18 construct: purchased DiscoveRx (KINOMEscan scanMAX panel)

[22] = molecular target: T19, RET (Homo sapiens, UniProt P07949)
T19 construct: purchased DiscoveRx (KINOMEscan scanMAX panel)

[23] = molecular target: T20, RIPK4 (Homo sapiens, UniProt P57078)
T20 construct: DNA label (qPCR read-out); purchased DiscoveRx (KINOMEscan ScanMAX panel)

[24] = molecular target: T21, RPS6KA4(Kin.Dom.2-C-terminal) (Homo sapiens, UniProt O75676)
T21 construct: Kin.Dom.2; DNA label (qPCR read-out); purchased DiscoveRx (KINOMEscan ScanMAX panel)

[25] = molecular target: T22, RSK2(Kin.Dom.1-N-terminal) (Homo sapiens, UniProt P51812)
T22 construct: RSK2(Kin.Dom.1); purchased DiscoveRx (KINOMEscan scanMAX panel)

[26] = molecular target: T23, RSK4(Kin.Dom.1-N-terminal) (Homo sapiens, UniProt Q9UK32)
T23 construct: RSK4(Kin.Dom.1); purchased DiscoveRx (KINOMEscan scanMAX panel)

[27] = molecular target: T24, STK39 (Homo sapiens, UniProt Q9UEW8)
T24 construct: DNA label (for qPCR read-out); purchased DiscoveRx (KINOMEscan scanMAX panel, contract assay)

[28] = molecular target: T25, TAOK2 (Homo sapiens, UniProt Q9UL54)
T25 construct: DNA label (for qPCR read-out); purchased DiscoveRx (KINOMEscan scanMAX panel, contract assay)

[29] = molecular target: T26, TESK1 (Homo sapiens, UniProt Q15569)
T26 construct: DNA label (for qPCR read-out); purchased DiscoveRx (KINOMEscan scanMAX panel, contract assay)

[30] = molecular target: T27, TGFBR1 (Homo sapiens, UniProt P36897)
T27 construct: DNA label (for qPCR read-out); purchased DiscoveRx (KINOMEscan scanMAX panel, contract assay)

[31] = molecular target: T28, TLK1 (Homo sapiens, UniProt Q9UKI8)
T28 construct: DNA label (qPCR read-out); purchased KINOMEscan (DiscoveRx) ScanMAX panel

[32] = molecular target: T29, TSSK1B (Homo sapiens, UniProt Q9BXA7)
T29 construct: DNA label (for qPCR read-out); purchased DiscoveRx (KINOMEscan scanMAX panel)

[33] = molecular target: T30, WEE1 (Homo sapiens, UniProt P30291)
T30 construct: purchased KINOMEscan (DiscoveRx) panel service

[34] = molecular target: T31, YSK1 (Homo sapiens, UniProt O00506)
T31 construct: purchased KINOMEscan (DiscoveRx) panel service

T19 sequence (P07949 29-1114): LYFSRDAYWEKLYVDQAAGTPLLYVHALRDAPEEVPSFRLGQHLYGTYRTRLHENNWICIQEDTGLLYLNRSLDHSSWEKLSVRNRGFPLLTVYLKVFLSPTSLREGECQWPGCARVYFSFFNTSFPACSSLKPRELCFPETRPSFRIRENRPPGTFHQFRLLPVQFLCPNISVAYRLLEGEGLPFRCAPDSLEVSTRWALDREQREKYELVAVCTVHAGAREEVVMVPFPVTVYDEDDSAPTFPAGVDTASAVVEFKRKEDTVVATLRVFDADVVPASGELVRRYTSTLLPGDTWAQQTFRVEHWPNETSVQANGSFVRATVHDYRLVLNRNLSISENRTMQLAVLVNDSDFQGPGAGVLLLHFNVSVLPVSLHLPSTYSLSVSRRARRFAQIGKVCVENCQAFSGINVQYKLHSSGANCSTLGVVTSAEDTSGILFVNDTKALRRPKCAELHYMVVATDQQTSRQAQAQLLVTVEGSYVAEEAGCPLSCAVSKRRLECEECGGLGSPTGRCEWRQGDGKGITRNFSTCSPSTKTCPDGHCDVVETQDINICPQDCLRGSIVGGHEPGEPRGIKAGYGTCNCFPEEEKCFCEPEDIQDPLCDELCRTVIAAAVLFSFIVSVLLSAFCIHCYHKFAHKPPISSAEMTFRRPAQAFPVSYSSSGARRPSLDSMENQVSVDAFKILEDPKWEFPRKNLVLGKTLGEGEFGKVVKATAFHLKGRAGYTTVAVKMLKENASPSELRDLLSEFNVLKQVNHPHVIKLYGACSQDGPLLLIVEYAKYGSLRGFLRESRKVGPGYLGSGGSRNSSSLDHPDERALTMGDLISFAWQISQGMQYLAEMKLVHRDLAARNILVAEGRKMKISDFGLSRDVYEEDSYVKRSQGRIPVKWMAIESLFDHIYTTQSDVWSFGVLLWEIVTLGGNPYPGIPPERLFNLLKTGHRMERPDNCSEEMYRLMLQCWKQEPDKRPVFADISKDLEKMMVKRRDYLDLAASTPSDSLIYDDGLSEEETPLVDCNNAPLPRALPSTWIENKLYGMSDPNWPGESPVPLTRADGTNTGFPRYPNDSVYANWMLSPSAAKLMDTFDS
T11 sequence (Q8WTQ7 whole entry): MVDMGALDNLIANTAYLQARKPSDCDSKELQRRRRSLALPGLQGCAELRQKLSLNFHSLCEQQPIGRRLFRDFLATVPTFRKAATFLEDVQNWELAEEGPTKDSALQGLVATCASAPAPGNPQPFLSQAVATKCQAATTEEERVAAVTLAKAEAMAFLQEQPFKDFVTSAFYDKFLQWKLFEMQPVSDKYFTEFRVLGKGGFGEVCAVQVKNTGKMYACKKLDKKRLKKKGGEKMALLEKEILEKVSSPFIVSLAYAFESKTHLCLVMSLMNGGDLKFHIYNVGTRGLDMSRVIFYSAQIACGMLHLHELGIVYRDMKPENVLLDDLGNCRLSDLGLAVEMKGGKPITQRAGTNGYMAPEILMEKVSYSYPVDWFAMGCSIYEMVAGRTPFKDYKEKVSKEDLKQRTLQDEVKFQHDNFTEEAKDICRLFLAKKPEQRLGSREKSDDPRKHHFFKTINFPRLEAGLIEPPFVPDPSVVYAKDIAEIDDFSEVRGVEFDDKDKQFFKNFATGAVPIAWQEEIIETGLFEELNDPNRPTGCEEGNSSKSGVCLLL
T29 sequence (Q9BXA7 whole entry): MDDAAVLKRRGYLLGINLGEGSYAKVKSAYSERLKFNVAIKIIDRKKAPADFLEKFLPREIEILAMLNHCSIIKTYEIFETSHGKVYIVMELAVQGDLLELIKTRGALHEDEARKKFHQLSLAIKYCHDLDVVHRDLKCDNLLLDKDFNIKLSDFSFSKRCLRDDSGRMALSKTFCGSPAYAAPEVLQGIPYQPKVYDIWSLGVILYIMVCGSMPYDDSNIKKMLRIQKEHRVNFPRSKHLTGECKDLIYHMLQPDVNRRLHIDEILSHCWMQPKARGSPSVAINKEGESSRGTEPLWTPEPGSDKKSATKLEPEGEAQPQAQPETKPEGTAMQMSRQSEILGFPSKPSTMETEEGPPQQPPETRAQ
T6 sequence (O14578 whole entry): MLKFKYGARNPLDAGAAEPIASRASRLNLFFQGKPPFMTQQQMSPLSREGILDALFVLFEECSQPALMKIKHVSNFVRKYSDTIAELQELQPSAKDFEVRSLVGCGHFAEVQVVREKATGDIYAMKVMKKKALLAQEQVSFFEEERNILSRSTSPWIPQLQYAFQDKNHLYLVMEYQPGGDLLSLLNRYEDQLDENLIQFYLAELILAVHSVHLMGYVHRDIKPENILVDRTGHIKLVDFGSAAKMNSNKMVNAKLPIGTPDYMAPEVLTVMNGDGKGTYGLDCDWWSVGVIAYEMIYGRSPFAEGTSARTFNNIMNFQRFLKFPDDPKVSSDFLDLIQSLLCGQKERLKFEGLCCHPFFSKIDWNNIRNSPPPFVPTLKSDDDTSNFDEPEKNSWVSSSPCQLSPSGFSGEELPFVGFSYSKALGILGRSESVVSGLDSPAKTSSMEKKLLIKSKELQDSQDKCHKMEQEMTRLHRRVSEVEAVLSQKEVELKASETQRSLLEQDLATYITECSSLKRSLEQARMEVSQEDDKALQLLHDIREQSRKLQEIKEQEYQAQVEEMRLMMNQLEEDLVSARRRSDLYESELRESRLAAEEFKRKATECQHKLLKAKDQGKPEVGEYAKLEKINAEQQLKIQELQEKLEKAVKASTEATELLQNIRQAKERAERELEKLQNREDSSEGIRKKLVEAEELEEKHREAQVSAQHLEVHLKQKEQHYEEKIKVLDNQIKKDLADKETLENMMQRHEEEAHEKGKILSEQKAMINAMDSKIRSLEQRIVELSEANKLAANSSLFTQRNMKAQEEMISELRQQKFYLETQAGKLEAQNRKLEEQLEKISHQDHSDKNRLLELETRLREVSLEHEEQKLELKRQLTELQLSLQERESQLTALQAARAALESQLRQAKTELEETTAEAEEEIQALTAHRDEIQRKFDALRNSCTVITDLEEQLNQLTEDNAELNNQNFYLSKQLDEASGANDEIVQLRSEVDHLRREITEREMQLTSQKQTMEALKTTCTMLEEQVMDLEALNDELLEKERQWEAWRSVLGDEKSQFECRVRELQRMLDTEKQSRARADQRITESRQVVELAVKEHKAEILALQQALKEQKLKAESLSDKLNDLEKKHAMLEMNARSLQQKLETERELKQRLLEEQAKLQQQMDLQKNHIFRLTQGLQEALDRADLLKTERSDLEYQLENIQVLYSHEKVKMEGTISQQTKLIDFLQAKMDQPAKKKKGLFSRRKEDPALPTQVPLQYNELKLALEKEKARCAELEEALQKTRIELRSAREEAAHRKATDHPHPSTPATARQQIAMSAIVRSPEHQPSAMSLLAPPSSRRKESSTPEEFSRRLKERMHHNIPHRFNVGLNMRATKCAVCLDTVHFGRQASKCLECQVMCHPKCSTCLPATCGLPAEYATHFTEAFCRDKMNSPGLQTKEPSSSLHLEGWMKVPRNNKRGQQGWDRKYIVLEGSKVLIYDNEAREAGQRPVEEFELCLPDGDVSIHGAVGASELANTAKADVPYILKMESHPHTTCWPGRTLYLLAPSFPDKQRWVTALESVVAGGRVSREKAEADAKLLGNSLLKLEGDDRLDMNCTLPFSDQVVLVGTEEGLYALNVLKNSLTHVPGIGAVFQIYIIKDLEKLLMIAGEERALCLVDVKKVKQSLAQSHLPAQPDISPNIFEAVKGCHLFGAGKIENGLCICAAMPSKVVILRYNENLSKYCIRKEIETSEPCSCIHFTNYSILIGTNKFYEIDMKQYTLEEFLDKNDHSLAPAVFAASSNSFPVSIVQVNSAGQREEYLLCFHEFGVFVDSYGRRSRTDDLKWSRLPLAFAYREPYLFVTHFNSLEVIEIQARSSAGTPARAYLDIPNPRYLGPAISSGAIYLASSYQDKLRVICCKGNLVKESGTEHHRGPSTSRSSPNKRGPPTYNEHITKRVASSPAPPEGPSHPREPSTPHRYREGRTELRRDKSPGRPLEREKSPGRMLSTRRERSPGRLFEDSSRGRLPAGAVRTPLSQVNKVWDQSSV
T3 sequence (Q6P2M8 whole entry): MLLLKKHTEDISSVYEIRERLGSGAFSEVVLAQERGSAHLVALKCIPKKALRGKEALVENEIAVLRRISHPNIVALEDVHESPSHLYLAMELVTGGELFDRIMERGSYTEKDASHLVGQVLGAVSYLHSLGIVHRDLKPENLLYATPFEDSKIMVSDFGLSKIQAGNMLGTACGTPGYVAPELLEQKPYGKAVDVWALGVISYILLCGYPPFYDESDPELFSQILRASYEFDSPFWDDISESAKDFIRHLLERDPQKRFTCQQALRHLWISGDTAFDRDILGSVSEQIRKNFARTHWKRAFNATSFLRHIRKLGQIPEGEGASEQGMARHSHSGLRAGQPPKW
T5 sequence (Q16566 whole entry): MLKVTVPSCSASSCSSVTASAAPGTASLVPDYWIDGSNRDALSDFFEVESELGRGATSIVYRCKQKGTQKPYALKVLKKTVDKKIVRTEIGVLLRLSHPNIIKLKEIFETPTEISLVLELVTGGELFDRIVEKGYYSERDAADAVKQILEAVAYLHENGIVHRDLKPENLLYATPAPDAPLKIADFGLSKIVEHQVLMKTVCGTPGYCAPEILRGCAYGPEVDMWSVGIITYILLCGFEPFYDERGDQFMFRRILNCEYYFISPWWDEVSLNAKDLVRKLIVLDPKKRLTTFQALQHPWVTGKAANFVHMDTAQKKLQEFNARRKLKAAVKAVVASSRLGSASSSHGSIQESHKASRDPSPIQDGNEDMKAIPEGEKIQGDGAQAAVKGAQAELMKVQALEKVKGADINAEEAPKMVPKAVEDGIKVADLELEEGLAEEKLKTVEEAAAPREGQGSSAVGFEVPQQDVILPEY

| Structure (SMILES) | % Ctrl [1] | % Ctrl [2] | % Ctrl [3] | % Ctrl [4] | % Ctrl [5] | % Ctrl [6] | % Ctrl [7] | % Ctrl [8] | % Ctrl [9] | % Ctrl [10] | % Ctrl [11] | % Ctrl [12] | % Ctrl [13] | % Ctrl [14] | % Ctrl [15] | % Ctrl [16] | % Ctrl [17] | % Ctrl [18] | % Ctrl [19] | % Ctrl [20] | also measured |
| --- | --- | --- | --- | --- | --- | --- | --- | --- | --- | --- | --- | --- | --- | --- | --- | --- | --- | --- | --- | --- | --- |
| CN(C)C(=O)c1ccc(N2CCCN(c3ccnc4sc(C(N)=O)c(N)c34)CC2)cc1 [15u, 3-amino-4-(4-(4-(dimethylcarbamoyl)phenyl)-1,4-diazepan-1-yl)thieno[2,3-b]pyridine-2-carboxamide] | 100 % Ctrl | 100 % Ctrl | 90 % Ctrl | 99 % Ctrl | 100 % Ctrl | 100 % Ctrl | 92 % Ctrl | 96 % Ctrl | 51 % Ctrl | 100 % Ctrl | 93 % Ctrl | 99 % Ctrl | 100 % Ctrl | 100 % Ctrl | 77 % Ctrl | 84 % Ctrl | 94 % Ctrl | 100 % Ctrl | 97 % Ctrl | 100 % Ctrl | % Ctrl [21]: 95 % Ctrl; % Ctrl [22]: 93 % Ctrl; % Ctrl [23]: 89 % Ctrl; % Ctrl [24]: 100 % Ctrl; % Ctrl [25]: 90 % Ctrl; % Ctrl [26]: 78 % Ctrl; % Ctrl [27]: 93 % Ctrl; % Ctrl [28]: 92 % Ctrl; % Ctrl [29]: 83 % Ctrl; % Ctrl [30]: 100 % Ctrl; % Ctrl [31]: 97 % Ctrl; % Ctrl [32]: 80 % Ctrl; % Ctrl [33]: 100 % Ctrl; % Ctrl [34]: 76 % Ctrl |
| [2H]C([2H])([2H])N(C(=O)c1ccc(N2CCCN(c3ccnc4sc(C(N)=O)c(N)c34)CC2)cc1)C([2H])([2H])[2H] [15u_D6, 3-amino-4-(4-(4-(bis(methyl-d3)carbamoyl)phenyl)-1,4-diazepan-1-yl)thieno[2,3-b]pyridine-2-carboxamide] | 76 % Ctrl | 77 % Ctrl | 77 % Ctrl | 100 % Ctrl | 100 % Ctrl | 70 % Ctrl | 87 % Ctrl | 79 % Ctrl | 65 % Ctrl | 100 % Ctrl | 94 % Ctrl | 100 % Ctrl | 97 % Ctrl | 92 % Ctrl | 90 % Ctrl | 69 % Ctrl | 70 % Ctrl | 87 % Ctrl | 84 % Ctrl | 79 % Ctrl | % Ctrl [21]: 92 % Ctrl; % Ctrl [22]: 86 % Ctrl; % Ctrl [23]: 68 % Ctrl; % Ctrl [24]: 74 % Ctrl; % Ctrl [25]: 64 % Ctrl; % Ctrl [26]: 80 % Ctrl; % Ctrl [27]: 94 % Ctrl; % Ctrl [28]: 93 % Ctrl; % Ctrl [29]: 100 % Ctrl; % Ctrl [30]: 100 % Ctrl; % Ctrl [31]: 85 % Ctrl; % Ctrl [32]: 99 % Ctrl; % Ctrl [33]: 88 % Ctrl; % Ctrl [34]: 98 % Ctrl |
